Biological target: T1, RPS6KA3 (RSK2) (Homo sapiens, UniProt P51812)
T1 construct: purchased Thermo Fisher Scientific (Life Technologies) SelectScreen
Assay: SelectScreen Z'LYTE
Assay type: biochemical
Outline: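 SelectScreen broad panel; activity (Z'LYTE, Adapta) plus binding formats. ATP: Km app for CSF1R Z'LYTE; 10 for CAMK1 Adapta. Readout = % per kinase.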

T1 sequence (P51812 whole entry): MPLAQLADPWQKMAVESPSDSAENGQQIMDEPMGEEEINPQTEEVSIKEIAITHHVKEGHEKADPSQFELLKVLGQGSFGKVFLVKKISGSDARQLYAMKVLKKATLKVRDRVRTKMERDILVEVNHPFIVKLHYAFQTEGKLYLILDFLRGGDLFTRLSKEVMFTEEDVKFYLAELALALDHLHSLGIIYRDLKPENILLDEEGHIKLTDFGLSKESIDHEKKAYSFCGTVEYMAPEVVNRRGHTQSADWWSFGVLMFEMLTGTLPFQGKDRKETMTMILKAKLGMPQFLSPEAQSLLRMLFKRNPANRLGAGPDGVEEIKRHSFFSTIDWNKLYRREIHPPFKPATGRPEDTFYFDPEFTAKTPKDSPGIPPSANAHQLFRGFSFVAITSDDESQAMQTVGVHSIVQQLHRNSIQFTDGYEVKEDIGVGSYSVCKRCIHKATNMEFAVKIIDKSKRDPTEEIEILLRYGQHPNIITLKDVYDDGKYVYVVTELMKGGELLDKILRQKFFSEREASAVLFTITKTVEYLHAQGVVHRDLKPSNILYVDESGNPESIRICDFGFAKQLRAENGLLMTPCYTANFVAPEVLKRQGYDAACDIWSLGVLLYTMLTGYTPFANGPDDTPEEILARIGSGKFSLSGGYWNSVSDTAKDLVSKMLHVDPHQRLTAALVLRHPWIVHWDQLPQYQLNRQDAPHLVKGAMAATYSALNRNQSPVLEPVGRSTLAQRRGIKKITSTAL

CN(C(=O)CN1CCOCC1)c1ccc2sc3c(-c4cccc5c(=O)cc(N6CC7CCC(C6)O7)oc45)cccc3c2c1 [NU5455]
inhibition at 1 µM: 2.1%

From publication PMC6934184, “Selective DNA-PKcs inhibition extends the therapeutic index of localized radiotherapy and chemotherapy” (The Journal of Clinical Investigation, 2019)
